{
  "source": "patent US20050131739A1",
  "about": "“Methods for monitoring severity of panic attacks and other rapidly evolving medical events in real time” (Alexza Molecular Delivery Corporation, priority 2003, published 2005)",
  "system": "acute panic attacks in patients with panic disorder",
  "test": "Double-blind, randomized, placebo-controlled clinical trial of alprazolam delivered by inhalation; panic recorded with patient experience diary (PED)",
  "assay_type": "in vivo",
  "conditions": "for mean peak panic severity / mean panic severity at 12 minutes: 11-point visual analogue scale; for mean panic severity at 12 minutes: 12 minutes following use of the inhaler",
  "description": "To determine the efficacy of alprazolam delivered by inhalation in the treatment of acute panic attacks, a clinical trial is conducted. The objectives of the trial are to determine the effectiveness of alprazolam delivered by inhalation at the time of onset of panic symptoms in decreasing the duration and/or severity of acute panic attacks in patients with panic disorder. The duration and severity of acute panic symptoms are measured using a patient experience diary (PED) for the real time assessment of severity of panic attacks. Patients are recruited for the study by posting in various public locations and medical clinics advertisements seeking patients who experience 2 or more panic attacks per week for participation in the study. To enroll patients who have not previously been treated for panic, the advertisement may include a description of panic symptoms, so that patients who experience panic attacks without being aware that such attacks constitute a medical condition are encouraged to volunteer.\nThe overall study design is a double-blind, randomized, placebo-controlled clinical trial. Patients 18-65 years of age reporting at least 2 panic attacks per week, without history of psychotic disorders, substance abuse disorders, dementia, or severe or life-threatening medical disorders such as serious heart or lung disease, eligible for the study. Patients not currently on medication for panic disorder, as well as patients currently using a stable dose of selective serotonin reuptake inhibitor (SSRI) the treatment of panic disorder are eligible for the study, as are patients currently taking alprazolam or other benzodiazepines on a PRN basis, if the patients agree not to use such drugs during the study period. Patients using chronic benzodiazepines or other sedative hypnotics for the treatment of panic disorder are excluded from the study, as are patients using psychotropic medications other than SSRIs or unstable SSRI doses. Eligible patients are enrolled in the study after being explained the risks and benefits of the study and signing informed consent.\nThe patients are then trained in use of the PED described in Examples 1 and 2 above, set to an every 3 minute prompting interval. After being trained in use of the PED, the patients then take the PED home for 3 weeks of use. During these 3 weeks, patients must record at least one panic attack per week in the diary of duration greater than 12 minutes (time from initial diary entry until the patient answers “not at all” to the item regarding the severity of their panic symptoms right now) to proceed to the randomization point in the study. Patients recording less than one panic attack per week, only very brief (less than 12 minute duration panic attacks), or having difficulty using the diary are dropped from the study. At this point, continuing patients are randomized to receive placebo inhaler, inhaler dispensing alprazolam 0.25 mg as an aerosol having an approximately 2 μm mass median aerodynamic diameter (MMAD), or inhaler dispensing alprazolam 0.5 mg as an aerosol having an approximately 2 μm MMAD. Patients are given four identical inhalers each, and instructed to use the inhalers at the time of their next 4 panic attacks (only 1 inhaler per attack). In particular, the patients are instructed to start the PED at the initiation of panic symptoms before taking their medication, to take the medication when prompted by the PED, and then to record the course of the panic attack after taking the medication as prompted by the PED.\nData from the 4 panic attacks during which the inhaler is used as panic treatment are recorded in the PED and transmitted to a central data storage site. The data is analyzed after each patient records 4 panic attacks, or after 8 weeks passes from the time the patient received the inhalers. […]",
  "data": [
    {"smiles": "Cc1nnc2n1-c1ccc(Cl)cc1C(c1ccccc1)=NC2", "note": "[alprazolam, 8-chloro-1-methyl-6-phenyl-4H-[1,2,4]triazolo[4,3-α] [1,4]benzodiazepine]", "values": [
      {"measurement": "mean peak panic severity", "setting": "alprazolam 0.25 mg by inhaler", "value": 6},
      {"measurement": "mean panic severity at 12 minutes", "setting": "alprazolam 0.25 mg by inhaler", "value": "3 out of 10"},
      {"measurement": "mean peak panic severity", "setting": "alprazolam 0.5 mg by inhaler", "value": 6},
      {"measurement": "mean panic severity at 12 minutes", "setting": "alprazolam 0.5 mg by inhaler", "value": "1.5 out of 10"},
      {"measurement": "mean duration of panic", "setting": "patients receiving alprazolam 0.25 mg by inhaler (aerosol, approx. 2 μm MMAD) at onset of panic attack", "value": 20, "unit": "min"},
      {"measurement": "mean duration of panic", "setting": "patients receiving alprazolam 0.5 mg by inhaler (aerosol, approx. 2 μm MMAD) at onset of panic attack", "value": 10, "unit": "min"}
    ]}
  ]
}
